According to patent publication US9708314B2, “Heterocyclic amide compound” (NISSAN CHEMICAL INDUSTRIES, LTD., priority 2013, dated 2017):

Assays:
Type in all cases: in vivo
Scirpus juncoides = test: Test Example 1: herbicidal activity, application before weed generation in submerged conditions; settings: Seventeenth Table
Procedure, shortened: (§1)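 Submerged pot test: alluvial soil, 4 cm water, seeds sown mixed, 2.5-leaf rice transplanted; emulsion in water applied to surface day of sowing, dose g/ha; greenhouse 25–30° C.; 3 wk; 0–5 rating.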

[1] = system: Echinochloa oryzacola Vasing.; test: as above; settings: Seventeenth Table
Procedure, shortened: as §1

Monochoria vaginalis = test: as above; settings: Seventeenth Table
Procedure, shortened: as §1

[2] = system: directly sowed Oryza sativa; test: Test Example 3: effect on crop by application to foliage (Wagner pot, water depth 0.1-0.5 cm); settings: Nineteenth Table; for b (effect on crop grade): application to foliage
Procedure, shortened: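 Three weeks after spraying, each species was graded 0–5 for herbicidal ratio, 5 being 90% or more. Application: water-diluted emulsifiable concentrate at a fixed g/ha to foliage of 14-day-old greenhouse (25–30 °C) plants in alluvial soil.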

[3] = system: transplanted Oryza sativa; test: Test Example 1: effect on crop, application before weed generation in submerged conditions; settings: Seventeenth Table
Procedure, shortened: as §1

Amaranthus retroflexus = test: Test Example 4: herbicidal effect by application to foliage (diluvial soil, plastic box); settings: for N (Amaranthus retroflexus) herbicidal effect: application herbicide amount 320 g/ha
Procedure, shortened: (§2)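 Read-out is a 0–5 visual grade of herbicidal ratio (5: ≥90%, almost withered; 0: ≤5%) taken three weeks after treatment. Compound was applied as a diluted emulsion to stem and leaf parts of 14-day greenhouse-grown plants (25° C. to 30° C.) at rates expressed as g/ha.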

Stellaria media = test: as above; settings: for P (Stellaria media) herbicidal effect: application herbicide amount 320 g/ha
Procedure, shortened: as §2

[4] = Application herbicide amount 320 g/ha
[5] = application herbicide amount 320 g/ha
[6] = Application herbicide amount 288 g/ha
[7] = Application herbicide amount 288 g/ha, foliage application
[8] = Application herbicide amount 141 g/ha
[9] = application to foliage, 141 g/ha

Structure (SMILES)	B: Scirpus juncoides (herbicidal effect grade) (Scirpus juncoides; [4])	A: Echinochloa oryzicola Vasing. (herbicidal effect grade) [1, 4]	C: Monochoria vaginalis (herbicidal effect grade) (Monochoria vaginalis; [4])	b (directly sowed Oryza sativa) effect on crop grade [2, 5]	a: transplanted Oryza sativa (effect on crop grade) [3, 4]	N (Amaranthus retroflexus) herbicidal effect (Amaranthus retroflexus; application to foliage)	P (Stellaria media) herbicidal effect (Stellaria media; application to foliage)	further results
Cc1nnc(NC(=O)c2ccc(C(F)(F)F)n3c(C4=NOC(C)(C)C4)nnc23)o1 [1-029]	3 (Herbicidal ratio of 40% or more and less than 70%)	5 (Herbicidal ratio of 90% or more (almost completely withered))	4 (Herbicidal ratio of 70% or more and less than 90%)	4 (Herbicidal ratio of 70% or more and less than 90%)	2 (Herbicidal ratio of 20% or more and less than 40%)	5 (Herbicidal ratio of 90% or more (almost completely withered))	5 (Herbicidal ratio of 90% or more (almost completely withered))	
Cc1nnc(NC(=O)c2ccc(C(F)(F)F)n3c(COCC(F)(F)F)nnc23)o1 [1-020]	3 (Herbicidal ratio of 40% or more and less than 70%)	4 (Herbicidal ratio of 70% or more and less than 90%)	2 (Herbicidal ratio of 20% or more and less than 40%)	2 (Herbicidal ratio of 20% or more and less than 40%)	0 (Herbicidal ratio of 5% or less (almost no effect))	4 (Herbicidal ratio of 70% or more and less than 90%)	4 (Herbicidal ratio of 70% or more and less than 90%)	
Cc1nnc(NC(=O)c2ccc(C(F)F)n3c(C(C)C)nnc23)o1 [1-053]	3 (Herbicidal ratio of 40% or more and less than 70%)	2 (Herbicidal ratio of 20% or more and less than 40%)	2 (Herbicidal ratio of 20% or more and less than 40%)	0 (Herbicidal ratio of 5% or less (almost no effect))	0 (Herbicidal ratio of 5% or less (almost no effect))	4 (Herbicidal ratio of 70% or more and less than 90%)	2 (Herbicidal ratio of 20% or more and less than 40%)	
Cc1nnc(NC(=O)c2ccc(C(F)(F)F)n3c([S+]([O-])C(C)C)nnc23)o1 (centres unmarked) [1-035]	4 (Herbicidal ratio of 70% or more and less than 90%)	5 (Herbicidal ratio of 90% or more (almost completely withered))	4 (Herbicidal ratio of 70% or more and less than 90%)	4 (Herbicidal ratio of 70% or more and less than 90%)	2 (Herbicidal ratio of 20% or more and less than 40%)	5 (Herbicidal ratio of 90% or more (almost completely withered))	5 (Herbicidal ratio of 90% or more (almost completely withered))	
C=CCSc1nnc2c(C(=O)Nc3nnco3)ccc(C(F)(F)F)n12 [1-128]								B: Scirpus juncoides (herbicidal effect grade) (Scirpus juncoides; [6]): 4 (Herbicidal ratio of 70% or more and less than 90%); A: Echinochloa oryzicola Vasing. (herbicidal effect grade) [1, 6]: 5 (Herbicidal ratio of 90% or more (almost completely withered)); C: Monochoria vaginalis (herbicidal effect grade) (Monochoria vaginalis; [6]): 2 (Herbicidal ratio of 20% or more and less than 40%); b (effect on crop grade) ([2]; application herbicide amount 288 g/ha): 0 (Herbicidal ratio of 5% or less (almost no effect)); a: transplanted Oryza sativa (effect on crop grade) [3, 6]: 0 (Herbicidal ratio of 5% or less (almost no effect)); N (Amaranthus retroflexus) herbicidal effect grade (Amaranthus retroflexus; [7]): 3 (Herbicidal ratio of 40% or more and less than 70%); P (Stellaria media) herbicidal effect grade (Stellaria media; [7]): 5 (Herbicidal ratio of 90% or more (almost completely withered))
CCN(C)c1nnc2c(C(=O)Nc3nnnn3C)ccc(C(F)(F)F)n12 [2-088]								B: Scirpus juncoides (herbicidal effect grade) (Scirpus juncoides; [8]): 5 (Herbicidal ratio of 90% or more (almost completely withered)); A: Echinochloa oryzicola Vasing. (herbicidal effect grade) [1, 8]: 5 (Herbicidal ratio of 90% or more (almost completely withered)); C: Monochoria vaginalis (herbicidal effect grade) (Monochoria vaginalis; [8]): 5 (Herbicidal ratio of 90% or more (almost completely withered)); b (effect on crop grade) ([2]; application herbicide amount 141 g/ha): 3 (Herbicidal ratio of 40% or more and less than 70%); a: transplanted Oryza sativa (effect on crop grade) [3, 8]: 3 (Herbicidal ratio of 40% or more and less than 70%); herbicidal effect, N (Amaranthus retroflexus) (Amaranthus retroflexus; [9]): 5 (Herbicidal ratio of 90% or more (almost completely withered)); herbicidal effect, P (Stellaria media) (Stellaria media; [9]): 5 (Herbicidal ratio of 90% or more (almost completely withered))
Cc1nnc(NC(=O)c2ccc(C(F)(F)F)n3c(-c4ccccc4)nnc23)o1 [1-012]	3 (Herbicidal ratio of 40% or more and less than 70%)	5 (Herbicidal ratio of 90% or more (almost completely withered))	4 (Herbicidal ratio of 70% or more and less than 90%)		0 (Herbicidal ratio of 5% or less (almost no effect))	3 (Herbicidal ratio of 40% or more and less than 70%)	4 (Herbicidal ratio of 70% or more and less than 90%)	b (directly sowed Oryza sativa) effect on crop grade ([2]; application herbicide amount 400 g/ha): 0 (Herbicidal ratio of 5% or less (almost no effect))
Cc1nnc(NC(=O)c2ccc(C(F)(F)F)n3c(CC(=O)O)nnc23)o1 [1-048]	0 (Herbicidal ratio of 5% or less (almost no effect))	3 (Herbicidal ratio of 40% or more and less than 70%)	0 (Herbicidal ratio of 5% or less (almost no effect))	0 (Herbicidal ratio of 5% or less (almost no effect))	1 (Herbicidal ratio of 5% or more and less than 20%)	4 (Herbicidal ratio of 70% or more and less than 90%)	4 (Herbicidal ratio of 70% or more and less than 90%)	
Cc1nnc(NC(=O)c2ccc(C(F)(F)F)n3c(CSCC(F)(F)F)nnc23)o1 [1-031]	3 (Herbicidal ratio of 40% or more and less than 70%)	4 (Herbicidal ratio of 70% or more and less than 90%)	3 (Herbicidal ratio of 40% or more and less than 70%)	2 (Herbicidal ratio of 20% or more and less than 40%)	0 (Herbicidal ratio of 5% or less (almost no effect))	4 (Herbicidal ratio of 70% or more and less than 90%)	4 (Herbicidal ratio of 70% or more and less than 90%)	
COc1ccccc1-c1nnc2c(C(=O)Nc3nnc(C)o3)ccc(C(F)(F)F)n12 [1-047]	3 (Herbicidal ratio of 40% or more and less than 70%)	4 (Herbicidal ratio of 70% or more and less than 90%)	2 (Herbicidal ratio of 20% or more and less than 40%)	3 (Herbicidal ratio of 40% or more and less than 70%)	1 (Herbicidal ratio of 5% or more and less than 20%)	5 (Herbicidal ratio of 90% or more (almost completely withered))	4 (Herbicidal ratio of 70% or more and less than 90%)	
COCc1nnc2c(C(=O)Nc3nnc(C)o3)ccc(C(F)(F)F)n12 [1-015]	3 (Herbicidal ratio of 40% or more and less than 70%)	2 (Herbicidal ratio of 20% or more and less than 40%)	3 (Herbicidal ratio of 40% or more and less than 70%)	1 (Herbicidal ratio of 5% or more and less than 20%)	0 (Herbicidal ratio of 5% or less (almost no effect))	5 (Herbicidal ratio of 90% or more (almost completely withered))	5 (Herbicidal ratio of 90% or more (almost completely withered))	
